In US9499502B2, “5-substituted iminothiazines and their mono- and dioxides as BACE inhibitors, compositions, and their use” (Merck Sharp & Dohme Corp., priority 2011, dated 2016):
pKi: −log10 of the molar value. Where two headings read alike, the source gives them in different places.

Columns and labels:
[1] = molecular target: purified human autoBACE-2 (Homo sapiens (Human), UniProt Q9Y5Z0); assay: BACE-2 Assay (BACE-HTRF assay); assay type: biochemical
Method: Inhibitor IC50s at purified human autoBACE-2 are determined in a time-resolved endpoint proteolysis assay that measures hydrolysis of the QSY7-[…]-Eu-amide FRET peptide substrate (BACE-HTRF assay). […] DMSO is present at 5% final concentration in the assay. Following laser excitation of sample wells at 320 nm, the fluorescence signal at 620 nm is collected for 400 ms following a 50 μs delay on a RUBYstar HTRF plate reader (BMG Labtechnologies). Raw RFU data is normalized to maximum (1.0 nM BACE/DMSO) and minimum (no enzyme/DMSO) RFU values. […] The Ki values are calculated from the IC50 using the Cheng-Prusoff equation.

[2] = molecular target: soluble human BACE1 catalytic domain (Homo sapiens (Human), UniProt P56817); assay: BACE1 HTRF FRET Assay; conditions: read-out: BACE1 Ki; Ki calculated from IC50 using the Cheng-Prusoff equation
Chain of soluble human BACE1 catalytic domain (P56817 75-416): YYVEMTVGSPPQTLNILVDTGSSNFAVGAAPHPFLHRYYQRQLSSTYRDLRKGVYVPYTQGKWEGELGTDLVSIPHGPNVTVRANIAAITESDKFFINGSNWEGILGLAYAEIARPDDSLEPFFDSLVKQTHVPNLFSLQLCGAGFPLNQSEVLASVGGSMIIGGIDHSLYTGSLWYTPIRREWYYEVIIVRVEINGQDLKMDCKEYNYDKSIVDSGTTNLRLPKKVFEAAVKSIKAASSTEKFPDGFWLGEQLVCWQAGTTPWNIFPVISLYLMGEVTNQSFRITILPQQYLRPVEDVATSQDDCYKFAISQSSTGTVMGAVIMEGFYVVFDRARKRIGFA

[3] = Ki calculated from IC50 using the Cheng-Prusoff equation, read-out: BACE2 Ki

Chain of purified human autoBACE-2 (Q9Y5Z0 63-473): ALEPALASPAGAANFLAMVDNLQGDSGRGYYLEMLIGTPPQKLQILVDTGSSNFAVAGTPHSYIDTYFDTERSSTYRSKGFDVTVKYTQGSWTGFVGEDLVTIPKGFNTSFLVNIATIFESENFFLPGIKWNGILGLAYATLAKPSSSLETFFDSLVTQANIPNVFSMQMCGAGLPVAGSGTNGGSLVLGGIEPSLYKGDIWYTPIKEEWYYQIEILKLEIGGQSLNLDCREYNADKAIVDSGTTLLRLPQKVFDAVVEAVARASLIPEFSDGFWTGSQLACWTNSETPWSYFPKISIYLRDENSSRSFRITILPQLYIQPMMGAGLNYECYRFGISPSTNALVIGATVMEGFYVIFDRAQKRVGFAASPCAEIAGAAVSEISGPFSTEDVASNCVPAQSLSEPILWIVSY

COc1cnc(C(=O)Nc2cc([C@]3(C)CS(=O)(=O)C(C)(C)C(=N)N3)c(F)cc2Br)cn1 [Example 9by]
pKi [1, 3]: 5.54
pKi [2]: 6.14

CCC1C(=N)N[C@](C)(c2cc(NC(=O)c3ccc(F)cn3)ccc2F)CS1(=O)=O (some centres unmarked) [Example 9ca]
pKi [1, 3]: 8.05
pKi [2]: 7.48

CC1(C)C(=N)N[C@](C)(c2nc(NC(=O)c3ccc(Cl)cn3)ccc2F)CS1(=O)=O [Example 9cc]
pKi [1, 3]: ≥ 8.00
pKi [2]: 7.86

CC1(C)C(=N)N[C@](C)(c2nc(NC(=O)c3ccc(C(F)(F)F)cn3)ccc2F)CS1(=O)=O [Example 9cf]
pKi [1, 3]: 7.40
pKi [2]: 7.59

COc1cnc(C(=O)Nc2ccc(F)c([C@]3(C)CS(=O)(=O)C(C)(C)C(=N)N3)n2)cn1 [Example 9cg]
pKi [1, 3]: 7.07
pKi [2]: 7.03

COc1ccc(C(=O)Nc2ccc(F)c([C@]3(C)CS(=O)(=O)C(C)(C)C(=N)N3)n2)nn1 [Example 9ci]
pKi [1, 3]: 7.36
pKi [2]: 6.66

CC1(C)C(=N)N[C@](C)(c2nc(NC(=O)c3cnc(C(F)F)cn3)ccc2F)CS1(=O)=O [Example 9cj]
pKi [1, 3]: 7.68

CC1(C)C(=N)N[C@](C)(c2nc(NC(=O)c3cnc(Br)cn3)ccc2F)CS1(=O)=O [Example 9ck]
pKi [1, 3]: ≥ 8.00
pKi [2]: 7.66

CC[C@]1(C)C(=N)N[C@](C)(c2cc(NC(=O)c3ccc(OC)cn3)ccc2F)CS1(=O)=O [Example 9cm-b]
pKi [1, 3]: 7.00 to 7.96

CC[C@]1(C)C(=N)N[C@](C)(c2cc(NC(=O)c3cnc(OC)cn3)ccc2F)CS1(=O)=O [Example 9cn-b]
pKi [1, 3]: 7.00 to 7.96

COc1cnc(C(=O)Nc2ccc(F)c([C@]3(C)CS(=O)(=O)[C@](C)(C4CC4)C(=N)N3)c2)cn1 [Example 9cq-b]
pKi [1, 3]: 7.00 to 7.96
pKi [2]: 7.01

COc1cccc2cc(C(=O)Nc3ccc(F)c([C@]4(C)CS(=O)(=O)[C@@](C)(CC5CCOCC5)C(=N)N4)c3)[nH]c12 [Example 9cu-a]
pKi [1, 3]: 7.00 to 7.96
pKi [2]: 7.33

C[C@@]1(c2ccccn2)C(=N)N[C@](C)(c2cc(NC(=O)c3ccc(F)cn3)ccc2F)CS1(=O)=O [Example 9cv-b]
pKi [1, 3]: 7.00 to 7.96
pKi [2]: 6.73

C[C@@]1(c2ccccn2)C(=N)N[C@](C)(c2cc(NC(=O)c3ccc(Cl)cn3)ccc2F)CS1(=O)=O [Example 9cw-b]
pKi [1, 3]: 7.00 to 7.96
pKi [2]: 7.14

COc1ccc(C(=O)Nc2ccc(F)c([C@]3(C)CS(=O)(=O)[C@](C)(c4ccccn4)C(=N)N3)c2)nc1 [Example 9cx-b]
pKi [1, 3]: 6.15 to 7.00
pKi [2]: 6.55

COc1cnc(C(=O)Nc2ccc(F)c([C@]3(C)CS(=O)(=O)[C@@](C)(c4ccccn4)C(=N)N3)c2)cn1 [Example 9cy-a]
pKi [1, 3]: 7.00 to 7.96
pKi [2]: 8.16

COc1cnc(C(=O)Nc2ccc(F)c([C@]3(C)CS(=O)(=O)[C@](C)(c4ccccn4)C(=N)N3)c2)cn1 [Example 9cy-b]
pKi [1, 3]: 6.15 to 7.00
pKi [2]: 6.68

C[C@@]1(c2cc(NC(=O)c3ccc(C(F)(F)F)cn3)ccc2F)CS(=O)(=O)[C@@](C)(c2ccccn2)C(=N)N1 [Example 9cz-a]
pKi [1, 3]: 7.00 to 7.96
pKi [2]: 8.22

C[C@@]1(c2ccccn2)C(=N)N[C@](C)(c2cc(NC(=O)c3ccc(C(F)(F)F)cn3)ccc2F)CS1(=O)=O [Example 9cz-b]
pKi [1, 3]: 6.15 to 7.00
pKi [2]: 6.74

C[C@@]1(c2cccc(F)c2)C(=N)N[C@](C)(c2cc(NC(=O)c3ccc(F)cn3)ccc2F)CS1(=O)=O [Example 9da-b]
pKi [1, 3]: 7.00 to 7.96
pKi [2]: 6.70

C[C@@]1(c2cc(NC(=O)c3ccc(Cl)cn3)ccc2F)CS(=O)(=O)[C@@](C)(c2cccc(F)c2)C(=N)N1 [Example 9db-b]
pKi [1, 3]: 7.00 to 7.96

COc1ccc(C(=O)Nc2ccc(F)c([C@]3(C)CS(=O)(=O)[C@@](C)(c4cccc(F)c4)C(=N)N3)c2)nc1 [Example 9dc-a]
pKi [1, 3]: 7.00 to 7.96
pKi [2]: 8.52

COc1cnc(C(=O)Nc2ccc(F)c([C@]3(C)CS(=O)(=O)[C@](C)(c4cccc(F)c4)C(=N)N3)c2)cn1 [Example 9dd-b]
pKi [1, 3]: 6.15 to 7.00
pKi [2]: 6.64

C[C@@]1(c2cccc(F)c2)C(=N)N[C@](C)(c2cc(NC(=O)c3ccc(C(F)(F)F)cn3)ccc2F)CS1(=O)=O [Example 9de-b]
pKi [1, 3]: 6.15 to 7.00
pKi [2]: 6.76

C[C@@]1(c2ccc(F)cc2)C(=N)N[C@](C)(c2cc(NC(=O)c3ccc(F)cn3)ccc2F)CS1(=O)=O [Example 9df-b]
pKi [1]: 7.00 to 7.96
pKi [2]: 6.78

COc1cnc(C(=O)Nc2ccc(F)c([C@]3(C)CS(=O)(=O)[C@](C)(c4cc(C(F)(F)F)ccn4)C(=N)N3)c2)cn1 [Example 9ee-b]
pKi [1, 3]: 7.00 to 7.96

CC1(C)C(=N)N[C@](C)(c2cc(NC(=O)c3cnc(OCC4CC4)cn3)ccc2F)CS1(=O)=O [Example 9p]
pKi [1, 3]: 7.80

CC1(C)C(=N)N[C@](C)(c2sc(-c3cccc(-c4nnco4)c3)cc2Cl)CS1(=O)=O [Example 27ae]
pKi [1, 3]: 7.68

COc1cccc2cc(-c3ccc(F)c([C@]4(C)CS(=O)(=O)C(C)(C)C(=N)N4)c3)[nH]c12 [compound 11]
pKi [1, 3]: > 6.70
